Measurements reported in paper PMC9841576, “Characterisation of C101248: A novel selective THIK-1 channel inhibitor for the modulation of microglial NLRP3-inflammasome” (Neuropharmacology, 2023).

Key:
[1] = molecular target: T1, TREK-1 (Homo sapiens, UniProt O95069); test: FLIPR thallium influx assay, HEK-hTREK-1 cells; assay type: cell-based; conditions: HEK-hTREK-1, at 30 μM, compared to TPA controls; read-out: inhibition of constitutive activity
T1 construct: expressed in transfected cells
Method: HEK-293 cells were transfected with human THIK-1, TREK-1, TWIK-2, or mouse THIK-1 cDNA cloned into pcDNA3.1, using either Fugene HD transfection reagent (Promega) or electroporation (MaxCyte STX instrument). Cells stably expressing the relevant genes were selected based on resistance to 500 μg/ml geneticin (Gibco). For human THIK-1 and TWIK-2 expressing cells, monoclonal lines were isolated by limited dilution cloning; mouse THIK-1 and human TREK-1 expressing cells were maintained as polyclonal pools. The HEK-293 pools and monoclones stably expressing the relevant genes were maintained in DMEM (Life Technologies), supplemented with 10% FCIII (HyClone, Fetal clone III) and 500 μg/ml geneticin. A CHO-Kv2.1 cell line was purchased from Millipore (accession NM_004975) and maintained in F12 (Life Technologies), supplemented with 10% FCSIII (Thermo Scientific) and 500 μg/ml geneticin (Life Technologies). […]
A fluorescence-based thallium influx assay (Molecular Devices potassium assay kit) was used to monitor channel activity. […] Using a fluorescent imaging plate reader (FLIPR) tetra plate reader, 15 μl thallium stimulus solution was added to the cell plate and the fluorescence signal recorded every second for 1 min (excitation: 470–495 nm, emission: 515–575 nm).

[2] = system: other constitutively active resting conductance in microglia; test: Whole-cell patch clamp of microglia in hippocampal slices: other resting and voltage-dependent currents; assay type: cell-based, mouse; conditions: 5 μM
Method: Acute hippocampal slices (300 μm thick), from 3 to 4 months old mice, were prepared using a specially adapted protective slicing solution ([Ting et al., 2014]) containing (mM) 93 choline chloride, 20 HEPES, 30 NaHCO3, 2.5 KCl, 0.5 CaCl2, 10 MgCl2, 1.2 NaH2PO4, 25 glucose, 1 kynurenic acid, 5 Na-ascorbate, 3 Na-pyruvate, pH adjusted to 7.4, bubbled with 95% O2/5% CO2 and cooled at <4 °C, and a recovery solution containing (mM) 92 NaCl, 20 HEPES, 30 NaHCO3, 2.5 KCl, 2 CaCl2, 1 MgCl2, 1.2 NaH2PO4, 25 glucose, 1 kynurenic acid, 5 Na-ascorbate, 3 Na-pyruvate, pH set to 7.4 and bubbled with 95% O2/5% CO2
Immediately after slicing, slices were placed for 13 min in warm (33–35 °C) slicing solution and then transferred to recovery solution at room temperature until experimental usage. […] Slices were perfused with bicarbonate-buffered solution, at 34–36 °C for all experiments, containing (mM) 124 NaCl, 2.5 KCl, 26 NaHCO3, 1 NaH2PO4, 2 CaCl2, 1 MgCl2, 10 glucose, bubbled with 95% O2/5% CO2. Microglia were whole-cell clamped with electrodes containing K-gluconate based solution, comprising (mM) 130 K-glu, 4 NaCl, 1 CaCl2, 10 HEPES, 10 EGTA, 4 MgATP, 0.5 Na2GTP, pH set to 7.2 with KOH and osmolarity adjusted to […]. […] Currents were filtered at 1 kHz, digitized (10 kHz) and analysed off-line using pClamp10 software.

T1 sequence (O95069 whole entry): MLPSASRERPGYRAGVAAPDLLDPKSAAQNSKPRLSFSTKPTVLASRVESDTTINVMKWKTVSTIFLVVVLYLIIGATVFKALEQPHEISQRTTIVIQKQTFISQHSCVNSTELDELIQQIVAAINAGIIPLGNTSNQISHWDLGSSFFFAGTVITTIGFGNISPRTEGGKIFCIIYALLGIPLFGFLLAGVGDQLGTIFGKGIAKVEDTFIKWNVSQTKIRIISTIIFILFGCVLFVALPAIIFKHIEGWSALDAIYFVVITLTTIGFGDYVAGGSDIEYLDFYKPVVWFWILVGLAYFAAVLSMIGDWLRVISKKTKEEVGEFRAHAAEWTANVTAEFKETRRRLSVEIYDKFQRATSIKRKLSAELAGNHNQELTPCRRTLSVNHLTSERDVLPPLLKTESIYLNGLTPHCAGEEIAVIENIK

Nc1nonc1-c1nc2ccccc2n1Cc1ccncc1 [C101248]
inhibition at 30 µM [1]: 18%
effect on baseline membrane current in THIK-1 KO mice ([2]; microglia voltage-clamped at 0 mV, THIK-1 KO mice): no further changes
effect on inward or outward currents induced by depolarising voltage steps ([2]; voltage steps −150 mV to +60 mV): no effect
